Tests used:
[1] = test system: carrageenan-induced acute inflammatory thermal hyperalgesia; test: Carrageenan model of acute inflammatory thermal hyperalgesia; type: in vivo, rat; settings: for increase of the PWLcontra: vs vehicle
Description: Acute inflammatory thermal hyperalgesia were induced by injecting 100 μl of a 1% solution of λ-carrageenan (Sigma Chemical Co., St. Louis, Mo.) in physiological saline into the plantar surface of the right hind paw. Thermal hyperalgesia measured as paw withdrawal latency (PWL) was determined, using a commercially available thermal paw stimulator (UARDG, University of California, San Diego, Calif.) as described by Hargreaves et al. (Hargreaves et al., 1988). Rats were placed into individual plastic cubicles mounted on a glass surface maintained at 30° C., where a thermal stimulus, in the form of radiant heat emitted from a focused projection bulb, was then applied to the plantar surface of each hind paw. The stimulus current was maintained at 4.50±0.05 amp, and the maximum time of exposure was set at 20.48 s to limit possible tissue damage. The elapsed time until a brisk withdrawal of the hind paw from the thermal stimulus was recorded automatically using photodiode motion sensors. The right (carrageenan injected paw) and left hind paw of each rat was tested in 3 sequential trials at approximately 5 min intervals. Carrageenan-induced thermal hyperalgesia of paw withdrawal latency (PWLcarra) was calculated as the mean of the two shortest latencies. PWL was assessed 30 min (2 h after carrageenan injection) following i.p. compound administration. PWLcarra of the vehicle control group was taken as 0%, whereas the PWL of the contralateral side (PWLcontra) of the vehicle control group was taken as 100%, the analgesic efficacy was expressed as the percentage return of PWLcarra to PWLcontra.

[2] = test system: emesis in ferrets; test: Emesis in ferrets; type: in vivo, ferret
Description: Fasted male ferrets (Marshall BioResources, North Rose, N.Y.) weighing between 1.0 and 1.7 kg are used to determine the emetic effects. α4β2 PAM (Compound 1) was administered first and thirty minutes later, Compound A was administered at various doses. […] The percentage of animals that experienced emesis at a given dose was recorded.

[3] = target: T1, human α3β4 nicotinic acetylcholine receptor subtype expressed in HEK-293 cells (Homo sapiens, UniProt P30926+P32297); test: Calcium flux assay (FLIPR) in HEK-293 cells expressing human α3β4; type: cell-based; settings: agonists Compound A and Compound B
T1 construct: expressed in transfected cells
Description: Calcium Flux Assays Using Cells Expressing nAChR Subtypes
Human embryonic kidney (HEK) 293 cells stably expressing human α4β2 or α3β4 combinations are grown to confluency in 162 cm^2 tissue culture flasks in DMEM media supplemented with 10% FBS and 25 μg/ml zeocin and 200 μg/ml hygromycin B. IMR-32 neuroblastoma cells (ATCC) are grown to confluency in 162 cm^2 tissue culture flasks in minimum essential media supplemented with 10% FBS and 1 mM sodium pyruvate, 1% non-essential amino acids and 1% antibiotic-antimycotic. […] Calcium flux was measured using calcium-3 assay kit (Molecular Devices, Sunnyvale, Calif.) or fluo-4 (Invitrogen). […] The cells were loaded with 100 μl of the dye per well and incubated at room temperature for up to one hour for HEK 293 clonal stable cell lines or 30 minutes-45 minutes at 37° C. for IMR-32 cells Fluorescence measurements were read simultaneously from all the wells by a Fluorometic Imaging Plate Reader (FLIPR) at an excitation wavelength of 480 nm and an emission wavelength of 520 nm. Baseline fluorescence was measured for the first 6 seconds at which 3× concentrations of modulator/test compounds were added to the cell plate at 50 μl and incubated for five minutes. The fluorescence intensity was captured every second for the first 1 minute followed by every 5 seconds for an additional 4 minutes. […]

T1 sequence (P32297 32-505): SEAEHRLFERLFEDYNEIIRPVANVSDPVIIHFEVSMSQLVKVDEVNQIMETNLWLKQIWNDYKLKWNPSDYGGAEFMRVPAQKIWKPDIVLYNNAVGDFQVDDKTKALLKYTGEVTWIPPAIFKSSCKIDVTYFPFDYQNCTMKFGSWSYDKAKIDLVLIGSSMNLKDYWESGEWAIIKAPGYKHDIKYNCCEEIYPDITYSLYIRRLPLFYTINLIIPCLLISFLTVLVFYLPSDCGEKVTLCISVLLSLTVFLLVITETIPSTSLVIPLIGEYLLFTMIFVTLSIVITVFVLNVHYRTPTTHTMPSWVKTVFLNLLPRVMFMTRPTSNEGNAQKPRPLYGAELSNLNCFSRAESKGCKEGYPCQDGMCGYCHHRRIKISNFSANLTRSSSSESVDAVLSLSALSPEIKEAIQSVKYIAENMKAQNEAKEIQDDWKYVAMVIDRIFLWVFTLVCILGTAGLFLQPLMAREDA
T1 sequence (P30926 22-498): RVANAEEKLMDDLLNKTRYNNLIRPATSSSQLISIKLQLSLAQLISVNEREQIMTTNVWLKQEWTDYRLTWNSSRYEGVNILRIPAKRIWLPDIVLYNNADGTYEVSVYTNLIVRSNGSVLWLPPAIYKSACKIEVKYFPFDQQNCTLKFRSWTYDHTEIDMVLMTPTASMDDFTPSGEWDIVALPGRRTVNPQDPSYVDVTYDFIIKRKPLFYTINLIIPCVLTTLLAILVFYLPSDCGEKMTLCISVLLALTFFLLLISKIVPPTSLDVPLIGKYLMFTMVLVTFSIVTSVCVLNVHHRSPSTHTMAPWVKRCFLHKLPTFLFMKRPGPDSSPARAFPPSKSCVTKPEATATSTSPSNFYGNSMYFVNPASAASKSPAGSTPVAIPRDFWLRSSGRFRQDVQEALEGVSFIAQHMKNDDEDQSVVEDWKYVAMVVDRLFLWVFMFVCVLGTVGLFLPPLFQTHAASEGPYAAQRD

Compound	percent reversal of thermal hyperalgesia ([1]; Compound A 10 nmol/kg combined with Compound 1 (3.5 μmol/kg)) [%]	PWLcarra ([1]; Compound A 10 nmol/kg i.p. in the presence of Compound 1 (3.5 μmol/kg)) [s]	percent reversal of thermal hyperalgesia ([1]; Compound A 30 nmol/kg combined with Compound 1 (3.5 μmol/kg)) [%]	PWLcarra ([1]; Compound A 30 nmol/kg i.p. in the presence of Compound 1 (3.5 μmol/kg)) [s]	percent reversal of thermal hyperalgesia ([1]; Compound A 100 nmol/kg combined with Compound 1 (3.5 μmol/kg)) [%]	PWLcarra ([1]; Compound A 100 nmol/kg i.p. in the presence of Compound 1 (3.5 μmol/kg)) [s]	percent reversal of thermal hyperalgesia ([1]; Compound A alone, 100 nmol/kg) [%]	PWLcarra ([1]; Compound A alone, 100 nmol/kg i.p.) [s]	percent reversal of thermal hyperalgesia ([1]; Compound A alone, 300 nmol/kg) [%]	PWLcarra ([1]; Compound A alone, 300 nmol/kg i.p.) [s]	increase of the PWLcontra ([1]; Compound A and Compound 1 co-administered animals)	increase of the PWLcontra ([1]; Compound A treated animals)	ED50 ([1]; Rattus norvegicus, Compound A alone, read-out: ED50 (reversal of thermal hyperalgesia)) [µmol/kg]	leftward shift in the DRC of Compound A ([1]; co-administration of Compound 1) [fold]	effect on the dose response curve of Compound A for emesis ([2]; Compound 1 3.5 μmol/kg with various doses of Compound A)	emesis ([2]; alone)	effect of the PAM on the concentration responses to the agonists [3]	alteration of PWLcarra ([1]; Compound 1 alone, up to 35 μmmol/kg, i.p.)
Clc1ccc(OC[C@H]2CCN2)cn1 [Compound A, 5-[(2R)-azetidin-2-ylmethoxy]-2-chloropyridine]	31±13	5.29 ± 0.91	46±10	6.35 ± 0.71	84±12	8.94 ± 0.79	28±5	5.46 ± 0.36	74±9	8.80 ± 0.65	not statistically significant	not statistically significant	0.16	5				
N#Cc1cccc(-c2nc(-c3cccnc3)no2)c1 [Example 1, 3-(3-(pyridin-3-yl)-1,2,4-oxadiazol-5-yl)benzonitrile]															does not shift the dose response curve of Compound A	does not cause emesis	unable to affect the concentration responses to the agonists	produced no alteration of PWLcarra
